Test results taken from PubChem BioAssay AID256 (DTP/NCI, 2004).
Several values for one entry are separate records, joined by “and”; a condition that tells them apart may be missing. Identical values can stand only once. Toxic doses and inconclusive results are not listed.

Tested on: CD2F1 mice, L1210 leukemia ip, survival T/C
Assay: NCI In Vivo Anticancer Drug Screen. Data for tumor model L1210 Leukemia (intraperitoneal) in CD2F1 (CDF1) mice
Settings: higher = longer survival
In short: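 In this screen, transplantable tumors were grown in mice given either the compound or its vehicle. Results were expressed as the treated measurement relative to the control measurement.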

[1] = endpoint: mean survival time, dose: 100.0 mg/kg/injection, schedule: Q01DX009 (ip), vehicle: saline
[2] = endpoint: mean survival time, dose: 200.0 mg/kg/injection, schedule: Q01DX009 (ip), vehicle: saline
[3] = endpoint: mean survival time, dose: 400.0 mg/kg/injection, schedule: Q01DX009 (ip), vehicle: saline
[4] = endpoint: mean survival time, dose: 12.5 mg/kg/injection, schedule: Q01DX009 (ip), vehicle: saline with Tween-80
[5] = endpoint: mean survival time, dose: 25.0 mg/kg/injection, schedule: Q01DX009 (ip), vehicle: saline with Tween-80
[6] = endpoint: mean survival time, dose: 100.0 mg/kg/injection, schedule: Q01DX009 (ip), vehicle: saline with Tween-80
[7] = endpoint: mean survival time, dose: 200.0 mg/kg/injection, schedule: Q01DX009 (ip), vehicle: saline with Tween-80

`OCC1OC(n2cnc3c(=S)nc[nH]c32)C(O)C1O` (stereo unspecified) was tested, and the T/C (endpoint: mean survival time, dose: 75.0 mg/kg/injection, schedule: Q01DX005 (ip), vehicle: saline) was 104 % of control, the T/C (endpoint: mean survival time, dose: 75.0 mg/kg/injection, schedule: Q01DX009 (ip), vehicle: saline) was 107 % of control and the T/C (endpoint: mean survival time, dose: 75.0 mg/kg/injection, schedule: Q01DX009 (oral), vehicle: saline) was 97 % of control. For the same compound, the T/C (endpoint: mean survival time, dose: 100.0 mg/kg/injection, schedule: Q01DX005 (ip), vehicle: saline) was 122 % of control, the T/C (endpoint: mean survival time, dose: 100.0 mg/kg/injection, schedule: Q01DX007 (ip), vehicle: Klucel (hydroxypropylcellulose) (HPC)) was 115 % of control and the T/C (endpoint: mean survival time, dose: 100.0 mg/kg/injection, schedule: Q01DX007 (ip), vehicle: saline) was 152 % of control. The T/C (endpoint: mean survival time, dose: 100.0 mg/kg/injection, schedule: Q01DX009 (ip), vehicle: Klucel (hydroxypropylcellulose) (HPC)) was 118 % of control, the T/C [1] was 154 % of control and the T/C (endpoint: mean survival time, dose: 100.0 mg/kg/injection, schedule: Q03DX003 (ip), vehicle: Klucel (hydroxypropylcellulose) (HPC)) was 95 % of control. The T/C (endpoint: mean survival time, dose: 100.0 mg/kg/injection, schedule: Q04DX003 (ip), vehicle: Klucel (hydroxypropylcellulose) (HPC)) was 102 % of control, the T/C (endpoint: mean survival time, dose: 100.0 mg/kg/injection, schedule: Q04DX003 (ip), vehicle: saline) was 113 % of control and the T/C (endpoint: mean survival time, dose: 112.0 mg/kg/injection, schedule: Q01DX010 (ip), vehicle: saline) was 110 % of control. For the same compound, the T/C (endpoint: mean survival time, dose: 150.0 mg/kg/injection, schedule: Q01DX005 (ip), vehicle: saline) was 107 % of control, the T/C (endpoint: mean survival time, dose: 150.0 mg/kg/injection, schedule: Q01DX009 (ip), vehicle: saline) was 116 % of control and the T/C (endpoint: mean survival time, dose: 150.0 mg/kg/injection, schedule: Q01DX009 (oral), vehicle: saline) was 98 % of control. The T/C (endpoint: mean survival time, dose: 200.0 mg/kg/injection, schedule: Q01DX007 (ip), vehicle: saline) was 157 % of control, the T/C [2] was 179 % of control and the T/C (endpoint: mean survival time, dose: 200.0 mg/kg/injection, schedule: Q03DX003 (ip), vehicle: Klucel (hydroxypropylcellulose) (HPC)) was 102 % of control. The T/C (endpoint: mean survival time, dose: 200.0 mg/kg/injection, schedule: Q03DX003 (ip), vehicle: saline) was 150 % of control, the T/C (endpoint: mean survival time, dose: 200.0 mg/kg/injection, schedule: Q04DX003 (ip), vehicle: Klucel (hydroxypropylcellulose) (HPC)) was 100 % of control and the T/C (endpoint: mean survival time, dose: 200.0 mg/kg/injection, schedule: Q04DX003 (ip), vehicle: saline) was 150 % of control. The T/C (endpoint: mean survival time, dose: 240.0 mg/kg/injection, schedule: Q01DX005 (ip), vehicle: saline) was 164 % of control, the T/C (endpoint: mean survival time, dose: 300.0 mg/kg/injection, schedule: Q01DX002 (sc), vehicle: saline) was 109 % of control and the T/C (endpoint: mean survival time, dose: 300.0 mg/kg/injection, schedule: Q01DX009 (oral), vehicle: saline) was 105 % of control. The T/C (endpoint: mean survival time, dose: 300.0 mg/kg/injection, schedule: Q04DX003 (ip), vehicle: saline) was 108 % of control, the T/C (endpoint: mean survival time, dose: 400.0 mg/kg/injection, schedule: Q01DX007 (ip), vehicle: saline) was 104 % of control and the T/C [3] was 116 % of control. For the same compound, the T/C (endpoint: mean survival time, dose: 400.0 mg/kg/injection, schedule: Q03DX003 (ip), vehicle: Klucel (hydroxypropylcellulose) (HPC)) was 111 % of control, the T/C (endpoint: mean survival time, dose: 400.0 mg/kg/injection, schedule: Q03DX003 (ip), vehicle: saline) was 154 % of control and the T/C (endpoint: mean survival time, dose: 400.0 mg/kg/injection, schedule: Q04DX003 (ip), vehicle: Klucel (hydroxypropylcellulose) (HPC)) was 111 % of control. For the same compound, the T/C (endpoint: mean survival time, dose: 400.0 mg/kg/injection, schedule: Q04DX003 (ip), vehicle: saline) was 175 % of control, the T/C (endpoint: mean survival time, dose: 480.0 mg/kg/injection, schedule: Q01DX005 (ip), vehicle: saline) was 156 % of control and the T/C (endpoint: mean survival time, dose: 600.0 mg/kg/injection, schedule: Q01DX001 (ip), vehicle: saline) was 97 % of control. The T/C (endpoint: mean survival time, dose: 600.0 mg/kg/injection, schedule: Q01DX002 (ip), vehicle: saline) was 104 % of control, the T/C (endpoint: mean survival time, dose: 600.0 mg/kg/injection, schedule: Q01DX002 (sc), vehicle: saline) was 116 % of control and the T/C (endpoint: mean survival time, dose: 600.0 mg/kg/injection, schedule: Q01DX009 (oral), vehicle: saline) was 97 % of control. The T/C (endpoint: mean survival time, dose: 600.0 mg/kg/injection, schedule: Q03HX008 (ip), vehicle: saline) was 119 % of control, the T/C (endpoint: mean survival time, dose: 600.0 mg/kg/injection, schedule: Q03HX016 (ip), vehicle: saline) was 121 % of control and the T/C (endpoint: mean survival time, dose: 600.0 mg/kg/injection, schedule: Q04DX003 (ip), vehicle: saline) was 114 % of control. For the same compound, the T/C (endpoint: mean survival time, dose: 600.0 mg/kg/injection, schedule: Q08DX002 (ip), vehicle: saline) was 104 % of control, the T/C (endpoint: mean survival time, dose: 900.0 mg/kg/injection, schedule: Q01DX002 (ip), vehicle: saline) was 118 % of control and the T/C (endpoint: mean survival time, dose: 1200.0 mg/kg/injection, schedule: Q01DX001 (ip), vehicle: saline) was 97 % of control. The T/C (endpoint: mean survival time, dose: 1200.0 mg/kg/injection, schedule: Q01DX002 (ip), vehicle: saline) was 116 % of control, the T/C (endpoint: mean survival time, dose: 1200.0 mg/kg/injection, schedule: Q01DX009 (ip), vehicle: saline) was 113 % of control and the T/C (endpoint: mean survival time, dose: 1200.0 mg/kg/injection, schedule: Q03HX016 (ip), vehicle: saline) was 154 % of control. The T/C (endpoint: mean survival time, dose: 1200.0 mg/kg/injection, schedule: Q03HX024 (ip), vehicle: saline) was 155 % of control and 158 % of control, the T/C (endpoint: mean survival time, dose: 1200.0 mg/kg/injection, schedule: Q08DX002 (ip), vehicle: saline) was 115 % of control and the T/C (endpoint: mean survival time, dose: 2400.0 mg/kg/injection, schedule: Q01DX001 (ip), vehicle: saline) was 98 % of control. The T/C (endpoint: mean survival time, dose: 2400.0 mg/kg/injection, schedule: Q03HX016 (ip), vehicle: saline) was 156 % of control, the T/C (endpoint: median survival time, dose: 40.0 mg/kg/injection, schedule: Q01DX009 (ip), vehicle: saline) was 114 % of control and 122 % of control and the T/C (endpoint: median survival time, dose: 160.0 mg/kg/injection, schedule: Q01DX009 (ip), vehicle: saline) was 155 % of control and 185 % of control. For the same compound, the T/C (endpoint: median survival time, dose: 320.0 mg/kg/injection, schedule: Q01DX009 (ip), vehicle: saline) was 185 % of control and the T/C (endpoint: median survival time, dose: 400.0 mg/kg/injection, schedule: Q01DX005 (ip), vehicle: water) was 150 % of control.
With `NC(=S)N/N=C/c1ccc(Cl)cn1` the T/C (endpoint: mean survival time, dose: 4.89 mg/kg/injection, schedule: Q01DX009 (ip), vehicle: saline with Tween-80) was 120 % of control, the T/C (endpoint: mean survival time, dose: 6.25 mg/kg/injection, schedule: Q04DX002 (ip), vehicle: saline with Tween-80) was 100 % of control and the T/C (endpoint: mean survival time, dose: 12.5 mg/kg/injection, schedule: Q04DX002 (ip), vehicle: saline with Tween-80) was 104 % of control and 108 % of control.
With `OCC1(CO)COC2(CCCCC2)N1` the T/C (endpoint: mean survival time, dose: 12.5 mg/kg/injection, schedule: Q01DX009 (ip), vehicle: saline) was 101 % of control and 103 % of control, the T/C (endpoint: mean survival time, dose: 25.0 mg/kg/injection, schedule: Q01DX009 (ip), vehicle: saline) was 103 % of control and 104 % of control and the T/C (endpoint: mean survival time, dose: 50.0 mg/kg/injection, schedule: Q01DX009 (ip), vehicle: saline) was 98 % of control. The T/C [1] was 95 % of control and 103 % of control, the T/C [2] was 97 % of control and the T/C [3] was 95 % of control and 104 % of control.
With `C/C=C/C=C1/OC(C)=C(C(C)=O)C1=O` the T/C [4] was 96 % of control and 97 % of control, the T/C [5] was 90 % of control and 95 % of control and the T/C (endpoint: mean survival time, dose: 50.0 mg/kg/injection, schedule: Q01DX009 (ip), vehicle: saline with Tween-80) was 90 % of control and 109 % of control. For the same compound, the T/C [6] was 100 % of control and 106 % of control and the T/C [7] was 100 % of control.
For `OC(CN1CCCCC1)c1cccs1` (stereo unspecified), the T/C (endpoint: mean survival time, dose: 6.25 mg/kg/injection, schedule: Q01DX009 (ip), vehicle: saline with Tween-80) was 102 % of control, the T/C [4] was 98 % of control and the T/C [5] was 102 % of control.
With `O=C(O)c1nccc2c([N+](=O)[O-])cccc12` the T/C (endpoint: mean survival time, dose: 100.0 mg/kg/injection, schedule: Q01DX009 (ip), vehicle: acetone) was 95 % of control, the T/C (endpoint: mean survival time, dose: 200.0 mg/kg/injection, schedule: Q01DX009 (ip), vehicle: acetone) was 95 % of control and the T/C (endpoint: mean survival time, dose: 400.0 mg/kg/injection, schedule: Q01DX009 (ip), vehicle: acetone) was 98 % of control.
With `O=C(O)C(=O)O.[NH-]C1CCCC1[NH-].[Pt+2]` (stereo unspecified) the T/C (endpoint: mean survival time, dose: 1.25 mg/kg/injection, schedule: Q04DX003 (ip), vehicle: other) was 104 % of control, the T/C (endpoint: mean survival time, dose: 2.5 mg/kg/injection, schedule: Q04DX003 (ip), vehicle: other) was 114 % of control and the T/C (endpoint: mean survival time, dose: 5.0 mg/kg/injection, schedule: Q04DX003 (ip), vehicle: other) was 115 % of control. The T/C (endpoint: mean survival time, dose: 10.0 mg/kg/injection, schedule: Q04DX003 (ip), vehicle: other) was 106 % of control.
In the case of `Nc1nc(NC2OC(CO)C(O)C2O)c2nnsc2n1` (stereo unspecified), the T/C (endpoint: mean survival time, dose: 75.0 mg/kg/injection, schedule: Q01DX001 (ip), vehicle: saline) is reported as 96 % of control, the T/C (endpoint: mean survival time, dose: 150.0 mg/kg/injection, schedule: Q01DX001 (ip), vehicle: saline) is reported as 100 % of control and the T/C (endpoint: mean survival time, dose: 300.0 mg/kg/injection, schedule: Q01DX001 (ip), vehicle: saline) is reported as 88 % of control.
For `CCOC(=O)Nc1cccc(C(F)(F)F)c1`, the T/C (endpoint: mean survival time, dose: 100.0 mg/kg/injection, schedule: Q01DX009 (ip), vehicle: other) was 97 % of control, the T/C (endpoint: mean survival time, dose: 200.0 mg/kg/injection, schedule: Q01DX009 (ip), vehicle: other) was 101 % of control and the T/C (endpoint: mean survival time, dose: 400.0 mg/kg/injection, schedule: Q01DX009 (ip), vehicle: other) was 107 % of control.
With `N=C(c1ccccc1)c1ccccc1` the T/C [6] was 100 % of control, the T/C [7] was 102 % of control and the T/C (endpoint: mean survival time, dose: 400.0 mg/kg/injection, schedule: Q01DX009 (ip), vehicle: saline with Tween-80) was 102 % of control.
